Source: patent publication US6461997B1, “Triazole sulfones having herbicidal activity” (Monsanto Technology LLC, priority 1999, dated 2002)

How the values were obtained:
SOLNI (black nightshade) = assay: Pre-emergence herbicidal activity, warm season; type: in vivo, Solanum nigrum; conditions: for Pre-emergence activity (GR80) SOLNI: GR80 = lowest tested rate (300, 100, 30, 10 g/ha) with 80% or greater inhibition, approx. 14 days after treating, 30/21° C.
Procedure, shortened: (§1)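 Seeds sown in sterilised fertilised topsoil received surface-applied compound in 50:50 acetone/water, typically at 300, 100, 30 and 10 g/ha, then greenhouse-grown at 30/21° C (warm-season species) or 18/13° C (cool-season species). Percent inhibition versus untreated plants was scored at about 14 days, giving GR80; an asterisk marks activity short of 80% at the top rate.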

POROL (common purslane) = assay: Pre-emergence herbicidal activity, warm season; type: in vivo, Portulaca oleracea; conditions: GR80 = lowest tested rate (300, 100, 30, 10 g/ha) with 80% or greater inhibition; approx. 14 days after treating; 30/21° C.
Procedure, shortened: as §1

[1] = tested on: AGRRE (quackgrass (seedling)); assay: Post-emergence herbicidal activity, cool season; type: in vivo, Elymus repens; conditions: abraded plants sprayed at 300, 100, 30 and 10 g/ha; about 14 days after treatment
Procedure, shortened: (§2)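 Read-out was GR80, derived from percent growth inhibition relative to abraded, unsprayed control plants, observed roughly 14 days after spraying. Compounds in 50:50 acetone/water were applied at 300, 100, 30 and 10 g/ha to seedlings 9 to 14 days old whose foliage had been sand-abraded to aid uptake.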

AVEFA (wild oat) = assay: Post-emergence herbicidal activity, cool season; type: in vivo, Avena fatua; conditions: abraded plants sprayed at 300, 100, 30 and 10 g/ha; about 14 days after treatment
Procedure, shortened: as §2

[2] = tested on: AEGCY (jointed goatgrass); assay: Post-emergence herbicidal activity, cool season; type: in vivo, Aegilops cylindrica; conditions: abraded plants sprayed at 300, 100, 30 and 10 g/ha; about 14 days after treatment
Procedure, shortened: as §2

[3] = tested on: AGSST (creeping bentgrass); assay: Pre-plant incorporated (PPI) herbicidal activity, cool season; type: in vivo, Agrostis stolonifera; conditions: for inhibition at 30 g/ha / inhibition at 100 g/ha / inhibition at 300 g/ha / inhibition at 900 g/ha / inhibition at 10 g/ha: Agrostis stolonifera, weed, PPI application, read-out: Percent inhibition AGSST; for PPI activity GR80, AGSST: pre-plant incorporated, lowest tested rate with 80% or greater inhibition, about 14 days
Description: (§3) In another set of tests, the pre-plant incorporated (PPI) activity of compounds of this invention was evaluated on the same species as for the pre-emergence tests described above. In the PPI tests the following procedure, designed to simulate PPI application, was used.
(§4) A pre-prepared topsoil mixture (described above) was placed in a pot and compacted to a depth of 1.0 to 1.25 cm from the top of the pot. Seeds of each of several monocotyledonous and dicotyledonous annual plant species were placed on top of the soil. A sufficient quantity of soil to cover the seeds and level fill the pot was weighed into an open container. A known amount of the test compound was dissolved or suspended in an organic solvent and applied by spraying to this cover soil. The cover soil was thoroughly mixed to distribute the test compound throughout the cover soil, and was then applied as a cover layer over the seeds. Untreated soil was used as a cover layer for control pots. After treatment the plants were placed in a greenhouse where they received 0.64 cm of overhead irrigation. All subsequent watering consisted of a light overhead mist and/or subirrigation as needed for germination and growth. Tables 9 and 10 below relate to warm season plant species which were placed after pre-emergence treatment in a greenhouse with a 30/21° C. day/night temperature regime. Tables 11 and 12 below relates to cool season plant species placed after pre-emergence treatment in a greenhouse or growth chamber with an 18/13° C. day/night temperature regime. Only the compounds of Examples 1, 6, 8, 11, 13 and 15-20 were included in PPI tests.
(§5) Approximately 14 days after planting and treating, the plants were observed and herbicidal efficacy recorded as percent inhibition by comparison with untreated plants.

[4] = tested on: VERPE (creeping speedwell); assay: as above; type: in vivo, Veronica persicaria; conditions: for PPI activity GR80, VERPE: pre-plant incorporated, lowest tested rate with 80% or greater inhibition, about 14 days; for inhibition at 10 g/ha / inhibition at 30 g/ha / inhibition at 100 g/ha / inhibition at 300 g/ha / inhibition at 900 g/ha: weed, PPI application, read-out: Percent inhibition VERPE
Description: as §3, §4, §5

STEME (common chickweed) = assay: as above; type: in vivo, Stellaria media; conditions: for PPI activity GR80, STEME: pre-plant incorporated, lowest tested rate with 80% or greater inhibition, about 14 days
Description: as §3, §4, §5

DATST (jimsonweed) = assay: Pre-plant incorporated (PPI) herbicidal activity, warm season; type: in vivo, Datura stramonium; conditions: for inhibition at 30 g/ha / inhibition at 100 g/ha / inhibition at 300 g/ha / inhibition at 900 g/ha / inhibition at 10 g/ha: Datura stramonium, PPI application, read-out: Percent inhibition DATST; for PPI activity (GR80) DATST: pre-plant incorporated, GR80 = lowest tested rate with 80% or greater inhibition, approx. 14 days after treating, 30/21° C.
Description: as §3, §4, §5

Row | Compound | Pre-emergence activity (GR80) SOLNI (SOLNI (black nightshade)) [g/ha] | Pre-emergence activity (GR80) POROL (POROL (common purslane)) [g/ha] | Post-emergence activity GR80, AGRRE [1] | Post-emergence activity GR80, AVEFA (AVEFA (wild oat)) | Post-emergence activity GR80, AEGCY [2] | inhibition at 30 g/ha [3] [%] | inhibition at 100 g/ha [3] [%] | inhibition at 300 g/ha [3] [%] | inhibition at 900 g/ha [3] [%] | PPI activity GR80, AGSST [3] [g/ha] | PPI activity GR80, VERPE [4] | PPI activity GR80, STEME (STEME (common chickweed)) [g/ha] | inhibition at 30 g/ha (DATST (jimsonweed)) [%] | inhibition at 100 g/ha (DATST (jimsonweed)) [%] | inhibition at 300 g/ha (DATST (jimsonweed)) [%] | inhibition at 900 g/ha (DATST (jimsonweed)) [%] | PPI activity (GR80) DATST (DATST (jimsonweed)) [g/ha] | inhibition at 10 g/ha (DATST (jimsonweed)) [%] | inhibition at 10 g/ha [3] [%] | inhibition at 10 g/ha [4] [%] | also measured
1 | CCSC(F)(F)S(=O)(=O)c1ncn(C(=O)N(CC)CC)n1 [Example 8, 1-(N,N-diethylcarbamoyl)-3-[difluoro(ethylthio)methylsulfonyl]-1,2,4-triazole] | 100 | 300 | [empty] | [empty] | [empty] | 100 | 100 | 100 | 100 | 30 | 100 g/ha | 30 | 30 | 60 | 100 | 100 | 100 | – | – | – | inhibition at 30 g/ha (STEME (common chickweed); Stellaria media, weed, PPI application, 30 g/ha, read-out: Percent inhibition STEME): 80%; inhibition at 100 g/ha (STEME (common chickweed); Stellaria media, weed, PPI application, 100 g/ha, read-out: Percent inhibition STEME): 80%; inhibition at 300 g/ha (STEME (common chickweed); Stellaria media, weed, PPI application, 300 g/ha, read-out: Percent inhibition STEME): 95%; inhibition at 900 g/ha (STEME (common chickweed); Stellaria media, weed, PPI application, 900 g/ha, read-out: Percent inhibition STEME): 99%
2 | CCN(CC)C(=O)n1cnc(S(=O)(=O)C(F)F)n1 [Example 15, 1-(N,N-diethylcarbamoyl)-3-(difluoromethylsulfonyl)-1,2,4-triazole] | 100 | 100 | [empty] | [empty] | [empty] | – | – | – | – | 100 | 300 g/ha | 300 | 0 | 0 | 65 | 90 | 300 | 0 | – | – | inhibition at 10 g/ha (SOLNI (black nightshade); Solanum nigrum, pre-emergence application, 10 g/ha, read-out: Percent inhibition, weed SOLNI): 0%; inhibition at 30 g/ha (SOLNI (black nightshade); Solanum nigrum, pre-emergence application, 30 g/ha, read-out: Percent inhibition, weed SOLNI): 0%; inhibition at 100 g/ha (SOLNI (black nightshade); Solanum nigrum, pre-emergence application, 100 g/ha, read-out: Percent inhibition, weed SOLNI): 0%; inhibition at 300 g/ha (SOLNI (black nightshade); Solanum nigrum, pre-emergence application, 300 g/ha, read-out: Percent inhibition, weed SOLNI): 0%; inhibition at 900 g/ha (SOLNI (black nightshade); Solanum nigrum, pre-emergence application, 900 g/ha, read-out: Percent inhibition, weed SOLNI): 0%
3 | C=CCC(F)(F)S(=O)(=O)c1ncn(C(=O)N(CC)CC)n1 [Example 17, 1-(N,N-diethylcarbamoyl)-3-[(1,1-difluoro-3-butenyl)sulfonyl]-1,2,4-triazole] | 100 | 300 | [empty] | [empty] | [empty] | 95 | 95 | 100 | 100 | 10 | 10 g/ha | 10 | 0 | 30 | 60 | 99 | 300 | 0 | 70 | 0 | inhibition at 30 g/ha [4]: 0%; inhibition at 100 g/ha [4]: 0%; inhibition at 300 g/ha [4]: 90%; inhibition at 900 g/ha [4]: 100%
4 | C=C(C)CC(F)(F)S(=O)(=O)c1ncn(C(=O)N(CC)CC)n1 [Example 18] | 100 | 100 | [empty] | [empty] | [empty] | 60 | 100 | 99 | 100 | 10 | [empty] | 100 | 0 | 0 | 60 | 100 | 300 | 0 | 100 | 0 | inhibition at 30 g/ha [4]: 20%; inhibition at 100 g/ha [4]: 80%; inhibition at 300 g/ha [4]: 95%; inhibition at 900 g/ha [4]: 99%
5 | C=C(Br)CC(F)(F)S(=O)(=O)c1ncn(C(=O)N(CC)CC)n1 [Example 19] | 300 | 300 | [empty] | [empty] | [empty] | 90 | 100 | 90 | 100 | 10 | [empty] | 100 | 0 | 0 | 90 | 99 | 300 | 0 | 60 | 0 | inhibition at 30 g/ha [4]: 40%; inhibition at 100 g/ha [4]: 20%; inhibition at 300 g/ha [4]: 20%; inhibition at 900 g/ha [4]: 99%
